Assay results taken from patent US20120029187A1, “HALOALKYLSULFONANILIDE DERIVATIVE” (Nissan Chemical Industries, Ltd., priority 2009, published 2012).

How the values were obtained:
Assay type in all cases: in vivo
common ragweed [1] = assay: Test Example 4: herbicidal effect in foliage treatment; details: dose 6.3 g/a, three weeks after application
Outline: (§1)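 Doses are given in grams per are of applied compound, sprayed as water-diluted emulsifiable concentrate onto foliage of 14-day-old plants grown at 25 to 30° C. Herbicidal activity was assessed visually on a rating scale after three weeks.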

wild oat [2] = assay: as above; details: dose 6.3 g/a, three weeks after application
Outline: as §1

redroot pigweed [3] = assay: as above; details: dose 6.3 g/a, three weeks after application
Outline: as §1

Italian ryegrass [4] = assay: as above; details: dose 6.3 g/a, three weeks after application
Outline: as §1

barnyardgrass [5] = assay: as above; details: dose 6.3 g/a, three weeks after application
Outline: as §1

large crabgrass [6] = assay: as above; details: dose 6.3 g/a, three weeks after application
Outline: as §1

beadstraw = assay: as above; details: dose 6.3 g/a, three weeks after application
Outline: as §1

common lambsquater [7] = assay: as above; details: dose 6.3 g/a, three weeks after application
Outline: as §1

giant foxtail [8] = assay: as above; details: dose 6.3 g/a, three weeks after application
Outline: as §1

common chickweed [9] = assay: as above; details: dose 6.3 g/a, three weeks after application
Outline: as §1

water foxtail [10] = assay: as above; details: dose 6.3 g/a, three weeks after application
Outline: as §1

barnyardgrass [11] = assay: Test Example 2: herbicidal effects during the vegetation period under submerged conditions; details: treatment during the vegetation period under submerged conditions; dose 2.52 g/a
Outline: (§2)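 Barnyardgrass, bulrush and ducksalad were co-sown in alluvial soil flooded to 4 cm and grown in a greenhouse at 25 to 30° C. At the 1- or 2-leaf stage, water-diluted emulsifiable concentrates went onto the water surface at set doses (g/a). Herbicidal effect was scored three weeks later on a graded scale.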

ducksalad [12] = assay: as above; details: treatment during the vegetation period under submerged conditions; dose 2.52 g/a
Outline: as §2

bulrush [13] = assay: as above; details: treatment during the vegetation period under submerged conditions; dose 2.52 g/a
Outline: as §2

barnyardgrass [14] = assay: Test Example 1: herbicidal effects in preemergence treatment under submerged conditions; details: dose 2.52 g/a
Outline: (§3)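 Alluvial soil was flooded to 4 cm, sown with barnyardgrass, bulrush and ducksalad, and planted with 2.5-leaf rice seedlings. On the seeding day, water-diluted emulsifiable concentrates were applied to the water surface at set doses (g/a). After three weeks in a 25 to 30° C. greenhouse, mortality was scored 0–5.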

ducksalad [15] = assay: as above; details: dose 2.52 g/a
Outline: as §3

bulrush [16] = assay: as above; details: dose 2.52 g/a
Outline: as §3

transplanted rice = assay: Test Example 1: preemergence treatment under submerged conditions, effect on crop; details: dose 2.52 g/a
Outline: as §3

common ragweed [17] = assay: Test Example 3: herbicidal effects in soil treatment; details: dose 6.3 g/a
Outline: (§4)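 Seeds were sown in sterilized diluvial soil and covered with about 1.5 cm of soil. Compounds, formulated as emulsifiable concentrates and diluted with water, were sprayed evenly over the soil surface at set doses in g/a. Herbicidal effect was scored on a rating scale three weeks later.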

wild oat [18] = assay: as above; details: dose 6.3 g/a
Outline: as §4

redroot pigweed [19] = assay: as above; details: dose 6.3 g/a
Outline: as §4

Italian ryegrass [20] = assay: as above; details: dose 6.3 g/a
Outline: as §4

barnyardgrass [21] = assay: as above; details: dose 6.3 g/a
Outline: as §4

large crabgrass [22] = assay: as above; details: dose 6.3 g/a
Outline: as §4

common lambsquater [23] = assay: as above; details: dose 6.3 g/a
Outline: as §4

giant foxtail [24] = assay: as above; details: dose 6.3 g/a
Outline: as §4

common chickweed [25] = assay: as above; details: dose 6.3 g/a
Outline: as §4

water foxtail [26] = assay: as above; details: dose 6.3 g/a
Outline: as §4

CC1CC(=O)N(Cc2ccccc2NS(=O)(=O)C(F)(F)F)CO1 (stereo not shown) [II-4]
J: common ragweed, herbicidal effect (common ragweed [1]): 5 (mortality of 90% or above (nearly complete death))
F: wild oat, herbicidal effect (wild oat [2]): 0 (mortality of less than 5% (almost ineffective))
K: redroot pigweed, herbicidal effect (redroot pigweed [3]): 0 (mortality of less than 5% (almost ineffective))
H: Italian ryegrass, herbicidal effect (Italian ryegrass [4]): 3 (mortality of at least 40% and less than 70%)
A: barnyardgrass, herbicidal effect (barnyardgrass [5]): 5 (mortality of 90% or above (nearly complete death))
D: large crabgrass, herbicidal effect (large crabgrass [6]): 5 (mortality of 90% or above (nearly complete death))
O: beadstraw, herbicidal effect (beadstraw): 4 (mortality of at least 70% and less than 90%)
L: common lambsquater, herbicidal effect (common lambsquater [7]): 3 (mortality of at least 40% and less than 70%)
E: giant foxtail, herbicidal effect (giant foxtail [8]): 5 (mortality of 90% or above (nearly complete death))
N: common chickweed, herbicidal effect (common chickweed [9]): 3 (mortality of at least 40% and less than 70%)
G: water foxtail, herbicidal effect (water foxtail [10]): 5 (mortality of 90% or above (nearly complete death))
A: barnyardgrass, herbicidal effect (evaluation scale 0-5) (barnyardgrass [11]): 5 (mortality of 90% or above (nearly complete death))
C: ducksalad, herbicidal effect (evaluation scale 0-5) (ducksalad [12]): 5 (mortality of 90% or above (nearly complete death))
B: bulrush, herbicidal effect (evaluation scale 0-5) (bulrush [13]): 5 (mortality of 90% or above (nearly complete death))
A: barnyardgrass, herbicidal effect (evaluation scale 0-5) (barnyardgrass [14]): 5 (mortality of 90% or above (nearly complete death))
C: ducksalad, herbicidal effect (evaluation scale 0-5) (ducksalad [15]): 5 (mortality of 90% or above (nearly complete death))
B: bulrush, herbicidal effect (evaluation scale 0-5) (bulrush [16]): 5 (mortality of 90% or above (nearly complete death))
a: transplanted rice, effect on crop (evaluation scale 0-5) (transplanted rice): 0 (mortality of less than 5% (almost ineffective))
J: common ragweed, herbicidal effect (evaluation scale 0-5) (common ragweed [17]): 4 (mortality of at least 70% and less than 90%)
F: wild oat, herbicidal effect (evaluation scale 0-5) (wild oat [18]): 0 (mortality of less than 5% (almost ineffective))
K: redroot pigweed, herbicidal effect (evaluation scale 0-5) (redroot pigweed [19]): 0 (mortality of less than 5% (almost ineffective))
H: Italian ryegrass, herbicidal effect (evaluation scale 0-5) (Italian ryegrass [20]): 3 (mortality of at least 40% and less than 70%)
A: barnyardgrass, herbicidal effect (evaluation scale 0-5) (barnyardgrass [21]): 5 (mortality of 90% or above (nearly complete death))
D: large crabgrass, herbicidal effect (evaluation scale 0-5) (large crabgrass [22]): 5 (mortality of 90% or above (nearly complete death))
L: common lambsquater, herbicidal effect (evaluation scale 0-5) (common lambsquater [23]): 4 (mortality of at least 70% and less than 90%)
E: giant foxtail, herbicidal effect (evaluation scale 0-5) (giant foxtail [24]): 5 (mortality of 90% or above (nearly complete death))
N: common chickweed, herbicidal effect (evaluation scale 0-5) (common chickweed [25]): 5 (mortality of 90% or above (nearly complete death))
G: water foxtail, herbicidal effect (evaluation scale 0-5) (water foxtail [26]): 5 (mortality of 90% or above (nearly complete death))
